Experimental data from patent US20240408112A1, “METHOD FOR PREVENTING OR TREATING PULMONARY ARTERIAL HYPERTENSION BY USING 7-DEHYDROCHOLESTEROLS OR SALTS, OXIDES, METABOLITES, OR DERIVATIVES THEREOF” (EXCELSIOR PHARMATECH LABS., priority 2023, published 2024).
pEC50: −log10 of the molar value.

Experiments:
[1] = test system: PAH rat pulmonary artery smooth muscle cells (rPASMC MCT); assay: BrdU cell proliferation assay, 0.1% FBS, 100 pM TGF-β, rPASMC MCT; format: cell-based; conditions: 100 pM TGF-β
Experimental: (§1) BrdU (5-bromo-2-deoxyuridine) cell proliferation assay (BrdU assay)
(§2) A 48-well plate was used, and 1.5×10^4 cells were implanted in each well. After 24 hours, the medium was changed to serum-free culture medium and synchronized for 24 hours. A 2-fold concentration of the compound in serum-free culture medium is prepared and the cells were pretreated for 1 hour. Then, the same volume of culture medium containing 20% fetal bovine serum (FBS) was added to dilute the compound. The final concentration was 10% FBS culture medium and 1 times the concentration of the compound. In the experimental group that added TGF-β, the same volume of TGF-β culture medium containing 10 ng/mL was added, with a final concentration of 5 ng/mL TGF-β and 1 times the concentration of the compound, and in the experimental group added with TGF-β, the entire process was conducted in culture medium containing 0.1% serum. Then, BrdU reagent was added about 6 hours later, and the cells were collected the next day for enzyme-linked immunosorbent assay (ELISA) analysis, the compound treatment time was about 24 hours, and the BrdU treatment time was about 18 hours.
(§3) Five compounds to be tested were screened by cell survival assay (MTT assay) and BrdU (5-bromo-2-deoxyuridine) cell proliferation assay, and the information of these compounds was listed in Table 1 below. Tables 2 and 3 respectively listed the growth inhibitions of on human pulmonary artery endothelial cells (hPAEC), human pulmonary artery smooth muscle cells (hPASMC), normal rat pulmonary artery smooth muscle cells (rPASMC, as the control group, represented by “CON”), and rat pulmonary artery smooth muscle cells (represented by “MCT”), by the five compounds to be tested under the conditions of 10% FBS, 0.1% FBS and 100 pM TGF-β.

[2] = test system: human pulmonary artery endothelial cells (hPAEC); assay: BrdU cell proliferation assay, 0.1% FBS, 100 pM TGF-β, hPAEC; format: cell-based; conditions: hPAEC, 100 pM TGF-β, 0.1% FBS
Experimental: as §1, §2, §3

## CC(C)CCCC(C)C1CCC2C3=CC=C4CC(O)CCC4(C)C3CCC21C (stereo not shown) [Code 039, 7-DHC]
[1]; Rattus norvegicus, MCT (PAH rPASMC), 0.1% FBS, read-out: EC50
  pEC50: 4.70
[1]; rPASMC MCT2, 0.1% FBS, 25 μM, FIG. 3
  Inhibition of cell growth (in words): significant inhibitory effects
[2]; Homo sapiens, Endothelial cell, read-out: EC50
  pEC50: 4.64
[2]; 25 μM, FIG. 3
  Inhibition of cell growth (in words): inhibition of cell growth
